What was measured:
hPI3K‐C2β (PIK3C2B) = hPI3K‐C2β (PIK3C2B) (Homo sapiens, UniProt O00750); assay: lipid kinase assay (ADP-Glo), PI3K-C2β; assay type: biochemical; conditions: Table 2; 100 μM ATP; read-out: IC50 PI3Kc2β
Method: In vitro selection, lipid kinase assay: To determine the inhibitory activity of the new molecular entities on PI3K enzyme, a lipid kinase assay was performed: recombinant proteins (30 ng), human PI3Kα (PIK3CA/PIK3R1, #1161‐1165‐1 ProQinase–Germany), hPI3Kβ (PIK3CB wt/PIK3R1, #1168‐1165‐1 ProQinase, Germany), hPI3Kγ (PIK3CG, #1163‐0000‐1 ProQinase, Germany), hPI3Kδ (PIK3CD/PIK3R1, #1162–1165‐1 ProQinase, Germany), hPI3K‐C2α (PIK3C2A, #14‐906 Merck Millipore_Merck KGaA, Germany), hPI3K‐C2β (PIK3C2B, #14‐907 Merck Millipore_Merck KGaA, Germany), hPI3K‐c2γ (PIK3C2G, #1207‐0000‐1 ProQinase, Germany), and hVps34 (PIK3C3, #1160‐0000‐1 ProQinase, Germany), were incubated in kinase buffer {12.5 μL; 20 mM Tris‐HCl pH 7.5, 10 mM MgCl2, 10 μM ATP, 0.05 mg mL^−1 BSA, 0.5 mM EDTA, 5 mM HEPES pH 7.5, for PI3Kα,PI3Kβ, PI3Kγ, PI3Kδ, PI3KC‐2α, and PI3KC‐2γ; 15 mM MnCl2, 5 mM EGTA, 100 μM ATP, 50 mM HEPES pH 7.5, 100 mM NaCl, and 0.03 % CHAPS for PI3K‐C2β and VPS34 {BSA=bovine serum albumin; EDTA=ethylenediaminetetraacetic acid; HEPES=4‐(2‐hydroxyethyl)‐1‐piperazineethanesulfonic acid; EGTA=ethylene glycol‐bis(2‐aminoethylether)‐N,N,N′,N′‐tetraacetic acid; CHAPS=3‐[(3‐cholamidopropyl)dimethylammonio]‐1‐propanesulfonate}. In the reaction, the ATP concentration used for different PI3Ks was defined on the basis of the Michaelis–Menten kinetics of each enzyme, provided by the supplier. […]

PC3 cells [1] = assay: PC3 cell proliferation (MTT); assay type: cell-based; design: key to Cell proliferation: active: Active: able to reduce proliferation to an extent greater than 50 %; inactive: able to reduce proliferation to an extent less than 50 %
Method: The biological activity of each prodrug was tested by analyzing their ability to decrease PC3 proliferation as a rapid test to evaluate the PI3Ks inhibitory activity after hydrolysis in a cell‐based assay. […] The choice of using such a cut‐off was due to the intent to identify rapidly which prodrug could be hydrolyzed in the assay to release the active compound. As expected, a good correlation between rate of hydrolysis and cellular activity was observed, and esters 64–68 and 70–73 were determined to be good candidates for topical use. We decided to focus our attention on ester 64, as its half‐life was a good compromise for a prodrug. The EC50 value of this ester was then evaluated on PC3 cells, and a value of (2.3±0.8) μM was obtained.
Cell proliferation: PC3 cell proliferation was measured with a 3‐(4,5‐dimethyl thiazol‐2‐yl)‐2,5‐diphenyltetrazolium bromide (MTT)‐based colorimetric assay (#11 465 007 001 Roche Diagnostic GmbH, Germany). PC3 cells were seeded in a 96‐well plate at a concentration of 10^4 cells mL^−1. PC3 cells were treated for 72 h with increasing concentrations of 64, and MTT was added. After ON solubilization of the MTT metabolite, formazan, the absorbance (λ=550–600 nm absorbance, with a reference wavelength of 650 nm) of each well was read in a multi‐well reader (Glomax multi detection system, Promega, model number 9301‐010). The percentage of proliferating cells was calculated by relating each absolute value to the control intended as PC3 cells treated with DMSO alone. An IC50 value was then derived by plotting all data on a dose–response curve (Graph Pad software) by using nonlinear regression fit (equation [log agonist] versus response).

PC3 cells [2] = assay: cell-cycle analysis, propidium iodide flow cytometry; assay type: cell-based; conditions: 10 μM, 48 h
Method: Cell‐cycle analysis: For DNA content determination, PC3 cells were seeded at 4×10^5 cells per 6 cm dish in triplicate in the presence of DMEM high glucose GlutaMAXTM (Gibco), 10 % fetal bovine serum (Invitrogen) supplemented with 5000 U mL^−1 penicillin–streptomycin (Gibco). The day after seeding, cells were treated for 48 h with 10 μM 64 or DMSO. Subsequently, PC3 cells were detached with 0.1 % trypsin–EDTA (Gibco), fixed in 70 % ethanol overnight at −20 °C, and stained for 40 min at […] with PI solution, containing 0.05 % Triton X‐100, 0.1 mg mL^−1 RNase, and 25 μg mL^−1 propidium iodide. Sample were analyzed for the DNA content by using a FACS‐Calibur flow cytometer (Becton Dickinson Immunocytometry Systems, San Jose, USA). The percentages of cells in the G0/G1, S, and G2 phases were calculated.

Sequence of hPI3K‐C2β (PIK3C2B) (O00750 whole entry): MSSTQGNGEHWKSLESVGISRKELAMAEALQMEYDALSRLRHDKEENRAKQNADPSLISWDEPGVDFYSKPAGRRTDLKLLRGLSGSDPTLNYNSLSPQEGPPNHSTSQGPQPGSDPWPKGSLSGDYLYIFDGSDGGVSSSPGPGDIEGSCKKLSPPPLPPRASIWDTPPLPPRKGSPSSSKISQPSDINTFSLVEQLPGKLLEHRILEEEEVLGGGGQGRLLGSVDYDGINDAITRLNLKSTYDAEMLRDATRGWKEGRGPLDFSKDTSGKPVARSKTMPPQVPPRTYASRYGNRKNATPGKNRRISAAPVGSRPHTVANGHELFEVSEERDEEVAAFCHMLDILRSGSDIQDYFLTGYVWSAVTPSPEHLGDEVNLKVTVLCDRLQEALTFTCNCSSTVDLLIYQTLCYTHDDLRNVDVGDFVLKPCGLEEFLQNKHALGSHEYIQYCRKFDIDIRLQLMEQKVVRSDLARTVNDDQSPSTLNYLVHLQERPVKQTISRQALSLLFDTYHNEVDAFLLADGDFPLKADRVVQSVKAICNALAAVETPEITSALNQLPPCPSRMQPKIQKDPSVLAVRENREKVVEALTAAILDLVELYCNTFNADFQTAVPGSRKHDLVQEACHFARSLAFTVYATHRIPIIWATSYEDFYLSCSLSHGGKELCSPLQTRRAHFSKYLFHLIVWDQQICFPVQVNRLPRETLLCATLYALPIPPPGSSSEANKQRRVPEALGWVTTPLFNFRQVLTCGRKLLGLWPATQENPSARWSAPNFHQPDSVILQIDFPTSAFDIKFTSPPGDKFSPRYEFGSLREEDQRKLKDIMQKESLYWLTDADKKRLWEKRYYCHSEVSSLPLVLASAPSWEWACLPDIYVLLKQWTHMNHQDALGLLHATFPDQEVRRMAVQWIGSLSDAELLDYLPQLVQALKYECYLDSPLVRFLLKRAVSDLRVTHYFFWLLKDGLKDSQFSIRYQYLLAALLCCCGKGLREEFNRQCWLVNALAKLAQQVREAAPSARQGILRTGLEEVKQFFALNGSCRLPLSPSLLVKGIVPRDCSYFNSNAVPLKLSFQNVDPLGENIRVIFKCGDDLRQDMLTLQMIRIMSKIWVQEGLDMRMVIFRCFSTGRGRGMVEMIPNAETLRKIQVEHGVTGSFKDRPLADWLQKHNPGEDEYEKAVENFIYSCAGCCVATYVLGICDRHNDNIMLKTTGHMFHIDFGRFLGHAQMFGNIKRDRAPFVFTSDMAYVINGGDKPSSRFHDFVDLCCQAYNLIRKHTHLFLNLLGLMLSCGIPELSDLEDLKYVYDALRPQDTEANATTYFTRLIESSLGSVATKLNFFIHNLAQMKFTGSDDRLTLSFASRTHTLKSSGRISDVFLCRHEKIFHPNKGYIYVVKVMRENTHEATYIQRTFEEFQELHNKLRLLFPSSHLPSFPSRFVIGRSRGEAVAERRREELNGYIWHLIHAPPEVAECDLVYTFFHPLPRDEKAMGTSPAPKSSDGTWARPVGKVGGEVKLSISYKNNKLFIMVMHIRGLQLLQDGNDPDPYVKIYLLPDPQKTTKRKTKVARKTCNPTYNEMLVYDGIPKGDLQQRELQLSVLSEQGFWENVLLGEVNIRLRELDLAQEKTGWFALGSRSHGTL

Row | EC50 (PC3 cells [1]; Homo sapiens, PC-3, PC3 proliferation, MTT, 72 h) [nM] | Structure (SMILES) | IC50 (hPI3K‐C2β (PIK3C2B)) [nM] | effect on proliferation of PC3 cells (PC3 cells [1]; 72 h of treatment) | Cell proliferation (PC3 cells [1]; PC3 cells, 10 μM of each prodrug) | effect on cell cycle (PC3 cells [2])
1 |  | O=C(O)c1cccc(Cn2cc(-c3cccc4c(=O)cc(N5CCOCC5)[nH]c34)nn2)c1 [Compound 37, 3‐{[4‐(2‐Morpholino‐4‐oxo‐1,4‐dihydroquinolin‐8‐yl)‐1H‐1,2,3‐triazol‐1‐yl]methyl}benzoic acid] | > 20000 |  |  | 
2 | 2300 ± 800 | COC(=O)c1cccc(Cn2cc(-c3cccc4c(=O)cc(N5CCOCC5)[nH]c34)nn2)c1 [Compound 64, Methyl 3‐{[4‐(2‐morpholino‐4‐oxo‐1,4‐dihydroquinolin‐8‐yl)‐1H‐1,2,3‐triazol‐1‐yl]methyl}benzoate] |  | dose‐dependently decreased proliferation | active | induce cell‐cycle arrest
